Assay results published in patent publication US20180065917A1, “IMMUNE CHECKPOINT INHIBITORS, COMPOSITIONS AND METHODS THEREOF” (Polaris Pharmaceuticals, Inc., priority 2016, published 2018).
pIC50: −log10 of the molar value.

Experiments:
[1] = molecular target: T1, PD-L1/PD-1 complex formation (Homo sapiens, UniProt Q9NZQ7); assay: PD-L1/PD-1 Interaction Assay (ELISA platform); assay type: binding; conditions: human PD-1-Fc coated plates, PD-L1-Fc-biotin 0.1 μg/ml, compounds pre-incubated 2 hours
T1 construct: purchased BPS Bioscience
Protocol: The ability of compounds to block PD-L1/PD-1 complex formation was evaluated using biochemical interaction assay based on the ELISA platform.
EIA/RIA high binding 96-well plates (Costar) were coated with human PD-1-Fc protein diluted in PBS to 0.5 μg/ml overnight at 4° C. The PD-1-Fc coated plates were washed in PBST and blocked in blocking buffer (2% BSA in PBST). Serially diluted compounds were pre-incubated with PD-L1-Fc-biotin (0.1 μg/ml final) for 2 hours on a shaker at room temperature. The PD-1-Fc coated plates were washed with PBST and solutions containing PD-L1 and compounds were added to the plates. The PD-1-Fc coated plates were incubated with PD-L1 and compound solution for 2 hours on a shaker at room temperature. After the incubation unbound PD-L1 was washed away with PBST and plates were incubated with the blocking buffer for 10 minutes. The bound PD-L1-Fc-biotin was detected with streptavidin-HRP and TMB substrate. The plates were read at OD450 nm in a plate reader (i3 from Molecular Devices) and percentages of inhibition of PD-L1/PD-1 complex formation were calculated.
PD-1-Fc protein was made at Polaris and PD-L1-Fc was purchased from BPS Bioscience.

T1 sequence (Q9NZQ7 19-239 limits assumed, one chain of several): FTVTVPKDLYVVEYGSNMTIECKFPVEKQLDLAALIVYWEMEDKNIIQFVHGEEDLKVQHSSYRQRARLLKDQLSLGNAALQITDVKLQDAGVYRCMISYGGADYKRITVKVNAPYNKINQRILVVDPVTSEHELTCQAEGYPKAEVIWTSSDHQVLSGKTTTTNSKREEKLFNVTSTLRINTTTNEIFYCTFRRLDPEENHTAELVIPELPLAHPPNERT

Structure (SMILES)	pIC50 [1]	melting point
O=C(O)[C@@H]1CCCCN1Cc1ccc(OCc2cccc(-c3cccc(COc4ccc(CN5CCCC[C@H]5C(=O)O)cc4Br)c3F)c2F)c(Br)c1 [Example 10, (2S,2′S)-1,1′-(((((2,2′-Difluoro-[1,1′-biphenyl]-3,3′-diyl)bis(methylene))bis(oxy))bis(3-bromo-4,1-phenylene))bis(methylene))bis(piperidine-2-carboxylic acid)]	6.00 to 6.96	204 to 208 °C
COc1cc(CN2CCCC[C@H]2C(=O)O)ccc1OCc1cccc(-c2cccc(COc3ccc(CN4CCCC[C@H]4C(=O)O)cc3OC)c2C)c1C [Example 20, (2S,2′S)-1,1′-(((((2,2′-Dimethyl-[1,1′-biphenyl]-3,3′-diyl)bis(methylene))bis(oxy))bis(3-methoxy-4,1-phenylene))bis(methylene))bis(piperidine-2-carboxylic acid)]	4.52 to 6.00	192 to 196 °C
